In assay [1] the test system is Rattus norvegicus. As to the kind of experiment: Pressor activity in anesthetized rat. It is filed as functional.
The subject of assay [2] is Rattus norvegicus. As to the kind of experiment: Antidiuretic activity in anesthetized rat. Type of assay: functional, Urine.
The test system of the next assay is Gallus gallus. Briefly: Avian vasodepressor activity in conscious chicken. Type of assay: functional.
Assay [3] can be described thus: Oxytocic activity in virgin rat uterine horns. Type of assay: functional.

Where a SMILES comes first, the peptide text is derived from it. Bridges are numbered along the chain shown (N, C = ends).

For the compound `CC[C@H](C)[C@@H]1NC(=O)[C@H](Cc2ccc(O)cc2)NC(=O)[C@@H](N)CSSC[C@@H](C(=O)N2CCC[C@H]2C(=O)N[C@@H](CCSC)C(=O)NCC(N)=O)NC(=O)[C@H](CC(N)=O)NC(=O)[C@H](CCC(N)=O)NC1=O` (H-CYIQNCPMG-NH2; disulfide 1-6), the Activity with Rattus norvegicus [1] came out at 27 U/mg; in the assay on Rattus norvegicus [2], 0.4 U/mg; in the assay with Gallus gallus, 193 U/mg; in assay [3], 200 U/mg.
